Experimental data taken from ChEMBL document CHEMBL1201862, “PubChem BioAssay data set” (2004).
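Compound exposure: 48 hours, 5 concentrations, 96-well plates. Abbreviation: GI50, concentration required for 50% inhibition of growth.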 Active and inactive are the calls of the source. Rule as the data show it: active = GI50 up to about 1.1 µM and inactive = higher.

What was measured:
Assay in all cases: NCI anticancer screen, dose series, 48 h
PC-3 = tested on: PC-3
UACC-257 = tested on: UACC-257
HOP-62 = tested on: HOP-62
Hs-578T = tested on: Hs-578T
MDA-MB-435 = tested on: MDA-MB-435
RXF 393 = tested on: RXF 393
NCI-H460 = tested on: NCI-H460
SK-OV-3 = tested on: SK-OV-3
SK-MEL-5 = tested on: SK-MEL-5
Malme-3M = tested on: Malme-3M
K562 = tested on: K562
MCF7 = tested on: MCF7
OVCAR-5 = tested on: OVCAR-5
UACC-62 = tested on: UACC-62
HCT-116 = tested on: HCT-116
HCT-15 = tested on: HCT-15
NCI-H226 = tested on: NCI-H226
HOP-92 = tested on: HOP-92
LOX IMVI = tested on: LOX IMVI
MDA-N = tested on: MDA-N

SMILES	GI50 (PC-3)	GI50 (UACC-257)	GI50 (HOP-62)	GI50 (Hs-578T)	GI50 (MDA-MB-435)	GI50 (RXF 393)	GI50 (NCI-H460)	GI50 (SK-OV-3)	GI50 (SK-MEL-5)	GI50 (Malme-3M)	GI50 (K562)	GI50 (MCF7)	GI50 (OVCAR-5)	GI50 (UACC-62)	GI50 (HCT-116)	GI50 (HCT-15) [µM]	GI50 (NCI-H226)	GI50 (HOP-92)	GI50 (LOX IMVI)	GI50 (MDA-N)
CN(C)CCNC(=O)c1ccc(NCCCN(C)CCCNc2ccc(C(=O)NCCN(C)C)c3nc4ccccc4c(O)c23)c2c(O)c3ccccc3nc12	< 0.01 µM (active)	0.185 µM (active)	< 0.01 µM (active)	0.0223 µM (active)	0.0101 µM (active)	0.146 µM (active)	< 0.01 µM (active)	< 0.0146 µM (active)	0.158 µM (active)	< 0.0153 µM (active)	0.0394 µM (active)	< 0.01 µM (active)	0.0422 µM (active)	0.0525 µM (active)	< 0.01 µM (active)	0.486	< 0.0317 µM (active)	0.234 µM (active)	< 0.01 µM (active)	
CO/N=C\c1ccc2c(c1)Sc1ccccc1O2	51.9 µM (inactive)	57 µM (inactive)	> 100 µM (inactive)	30.9 µM (inactive)	29.9 µM (inactive)	27.5 µM (inactive)	40.2 µM (inactive)	> 100 µM (inactive)		31.4 µM (inactive)	51.8 µM (inactive)	34.7 µM (inactive)	48.2 µM (inactive)	71.1 µM (inactive)	40.3 µM (inactive)	28.5	> 100 µM (inactive)	36.4 µM (inactive)	53.5 µM (inactive)	47.2 µM (inactive)
CCOP(=Nc1ccc(N(C)C)cc1)(OCC)OCC	> 100 µM (inactive)	> 100 µM (inactive)	> 100 µM (inactive)	> 100 µM (inactive)	> 100 µM (inactive)	> 100 µM (inactive)	> 100 µM (inactive)	> 100 µM (inactive)	> 100 µM (inactive)	> 100 µM (inactive)	> 100 µM (inactive)	> 100 µM (inactive)	> 100 µM (inactive)	> 100 µM (inactive)	> 100 µM (inactive)	> 100		> 100 µM (inactive)		> 100 µM (inactive)
c1cc2nnc1SCCCSc1ccc(nn1)SCCCS2	38.7 µM (inactive)	> 39.9 µM (inactive)	16 µM (inactive)	26.5 µM (inactive)	> 40.6 µM (inactive)	12.9 µM (inactive)		24.7 µM (inactive)	29.1 µM (inactive)	> 48.8 µM (inactive)	> 27.9 µM (inactive)	32.4 µM (inactive)	31.3 µM (inactive)	> 25.8 µM (inactive)	17.6 µM (inactive)		24.7 µM (inactive)	38.4 µM (inactive)	> 21.9 µM (inactive)	> 29.9 µM (inactive)
C=CCN1C(=O)/C(=C/c2ccc(OC)cc2)NC1=S	84.5 µM (inactive)	27.9 µM (inactive)	> 100 µM (inactive)	> 100 µM (inactive)	57.3 µM (inactive)	37.2 µM (inactive)	> 100 µM (inactive)	> 100 µM (inactive)	30.5 µM (inactive)		38.5 µM (inactive)	40.9 µM (inactive)	> 100 µM (inactive)	97.7 µM (inactive)	48 µM (inactive)	> 100	37.9 µM (inactive)	14.5 µM (inactive)	56.1 µM (inactive)	33.8 µM (inactive)
Cc1cc(O)c(C(c2cccnc2)c2c(O)cc(C)[nH]c2=O)c(=O)[nH]1	> 100 µM (inactive)	> 100 µM (inactive)	> 100 µM (inactive)	> 100 µM (inactive)	> 100 µM (inactive)	> 100 µM (inactive)	> 100 µM (inactive)	> 100 µM (inactive)	> 100 µM (inactive)	> 100 µM (inactive)	> 100 µM (inactive)	> 100 µM (inactive)	> 100 µM (inactive)	> 100 µM (inactive)	> 100 µM (inactive)	> 100			> 100 µM (inactive)	> 100 µM (inactive)
Cc1cccc(/C=C2\CCCc3ccccc3C2=O)c1	27.2 µM (inactive)	21.6 µM (inactive)	28.8 µM (inactive)	15.8 µM (inactive)	17 µM (inactive)		16.8 µM (inactive)	62.4 µM (inactive)		18.1 µM (inactive)	18 µM (inactive)	16.9 µM (inactive)	15 µM (inactive)	14 µM (inactive)	15 µM (inactive)	18.7	20.6 µM (inactive)	15 µM (inactive)	19.3 µM (inactive)	19.8 µM (inactive)
O=C(N/N=C(COc1ccccc1Cl)\N=C\c1ccncc1)c1ccncc1	> 100 µM (inactive)	> 100 µM (inactive)	> 100 µM (inactive)	> 100 µM (inactive)	> 100 µM (inactive)	> 100 µM (inactive)	> 100 µM (inactive)	> 100 µM (inactive)		> 100 µM (inactive)	> 100 µM (inactive)	> 100 µM (inactive)	> 100 µM (inactive)	> 100 µM (inactive)	> 100 µM (inactive)	> 100		> 100 µM (inactive)	> 100 µM (inactive)	> 100 µM (inactive)
O=C1/C(=C/c2ccccc2)NC(=S)N1CN1CCOCC1	> 100 µM (inactive)	> 100 µM (inactive)	> 100 µM (inactive)	> 100 µM (inactive)	> 100 µM (inactive)			> 100 µM (inactive)	> 100 µM (inactive)	> 100 µM (inactive)	> 100 µM (inactive)	> 100 µM (inactive)	> 100 µM (inactive)	> 100 µM (inactive)	> 100 µM (inactive)	> 100	> 100 µM (inactive)	> 100 µM (inactive)	> 100 µM (inactive)	> 100 µM (inactive)
CC1CC(NC2CCCCC2)=Nc2ccccc2N1Cc1ccccc1 (stereo not drawn)	5.41 µM (inactive)	3.45 µM (inactive)	7.03 µM (inactive)	3.95 µM (inactive)	3.38 µM (inactive)	2.36 µM (inactive)	3.37 µM (inactive)	11.2 µM (inactive)	2.43 µM (inactive)	1.49 µM (inactive)	1.73 µM (inactive)	3.66 µM (inactive)	5.09 µM (inactive)	1.79 µM (inactive)	4.71 µM (inactive)	5.33	12.7 µM (inactive)		2.11 µM (inactive)	3.69 µM (inactive)
C=C(C)C(=O)O[C@H]1C[C@@]23O[C@@H]2CCC(=C[C@H]2OC(=O)C(=C)[C@H]12)COC3O (stereo partly drawn)	> 100 µM (inactive)	> 100 µM (inactive)	> 100 µM (inactive)	> 100 µM (inactive)	44.3 µM (inactive)	25.1 µM (inactive)	> 100 µM (inactive)	> 100 µM (inactive)	> 100 µM (inactive)		20.2 µM (inactive)	30.6 µM (inactive)	> 100 µM (inactive)	54.1 µM (inactive)	18.9 µM (inactive)	19.5	> 100 µM (inactive)	21.9 µM (inactive)	14.9 µM (inactive)	49.2 µM (inactive)
Cc1nc2cccc(F)c2c(=O)n1C1CCCCNC1=O (stereo not drawn)	> 10 µM (inactive)	> 10 µM (inactive)	> 10 µM (inactive)	> 10 µM (inactive)	> 10 µM (inactive)	> 10 µM (inactive)	> 10 µM (inactive)	> 10 µM (inactive)	> 10 µM (inactive)		> 10 µM (inactive)	> 10 µM (inactive)	> 10 µM (inactive)	> 10 µM (inactive)	> 10 µM (inactive)	> 10	> 10 µM (inactive)	> 10 µM (inactive)	> 10 µM (inactive)	> 10 µM (inactive)
c1cc(CN2CCNCCNCCNCC2)cc(CN2CCNCCNCCNCC2)c1	> 100 µM (inactive)	> 100 µM (inactive)	> 100 µM (inactive)	> 100 µM (inactive)	> 100 µM (inactive)		> 100 µM (inactive)	> 100 µM (inactive)	> 100 µM (inactive)	> 100 µM (inactive)	> 100 µM (inactive)	> 100 µM (inactive)	> 100 µM (inactive)	> 100 µM (inactive)	> 100 µM (inactive)	> 10	> 100 µM (inactive)		> 100 µM (inactive)	> 100 µM (inactive)
Cc1cc(Cc2cc(Cc3cc(C)cc(C(C)(C)C)c3O)c(C)cc2C)c(O)c(C(C)(C)C)c1	> 100 µM (inactive)	16.2 µM (inactive)	17.5 µM (inactive)	17.5 µM (inactive)	13 µM (inactive)	12 µM (inactive)		16.7 µM (inactive)	16.6 µM (inactive)	12.5 µM (inactive)	15.7 µM (inactive)	12.7 µM (inactive)	19.6 µM (inactive)	13.4 µM (inactive)	16.4 µM (inactive)	17.4	14.8 µM (inactive)	13.2 µM (inactive)	20 µM (inactive)	18.6 µM (inactive)
Cc1ccc(S(=O)(=O)N/N=C2/CCC(C(C)(C)C)CC2Br)cc1 (stereo not drawn)	25.6 µM (inactive)	23 µM (inactive)	32.4 µM (inactive)	17.2 µM (inactive)	18.7 µM (inactive)		34.1 µM (inactive)	33.8 µM (inactive)	15.5 µM (inactive)	16.3 µM (inactive)	19.8 µM (inactive)	22.7 µM (inactive)	19.5 µM (inactive)	> 10 µM (inactive)	23.1 µM (inactive)	34	17.8 µM (inactive)	26.1 µM (inactive)	16.4 µM (inactive)	28.2 µM (inactive)
